Measurements as given in patent US20250002450A1, “CATIONIC STEROID COMPOUNDS, METHOD OF OBTAINING THEREOF, FORMULATIONS COMPRISING THEREOF AND THEIR USES” (UNIVERSIDADE DO PORTO, priority 2021, published 2025).
Converted amounts (≈) assume the structure as drawn.

Experiments:
[1] = tested on: E. coli 2252 (COL-resistant); experiment: Antibacterial MIC/MBC (broth microdilution); type: cell-based, Escherichia coli; conditions: E. coli 2252 (COL-resistant)
Description: (§1) Twelve reference bacterial strains and nine MDR clinically relevant bacterial strains were used in this study. Gram-negative bacteria comprised reference strains E. coli ATCC 25922, K. pneumoniae ATCC 13883, Salmonella enterica serovar Typhimurium CECT 443, P. aeruginosa ATCC 27853, A. baumannii ATCC 19606, C. jejuni ATCC 33560 (ATCC—American Type Culture Collection; CECT—Colección Espanola de Cultivos Tipo); clinical isolates E. coli SA/2, an extended-spectrum β-lactamase (ESBL)-producing strain and P. aeruginosa 33b, a pan-drug-resistant isolate; and animal isolates C. jejuni P5/4, a ciprofloxacin-resistant strain, C. jejuni 4432, C. jejuni 4433, C. jejuni 4448, and E. coli 2252, a COL-resistant strain [42]. Gram-positive strains included S. aureus ATCC 29213, E. faecalis ATCC 29212, S. pyogenes ATCC 19615, and environmental isolates methicillin-resistant S. aureus (MRSA) 66/1 [43], and VAN-resistant enterococci (VRE) E. faecalis B3/101 [44]. Gram-negative fish pathogens Yersinia ruckeri ATCC 29473, Listonella anguillarum ATCC 1924, and Tenacibaculum maritimum ATCC 43397 were also included.
(§2) Strains were kept in Trypto-Casein Soy agar (TSA—Biokar Diagnostics, Allone, Beauvais, France) slants and, before each assay, were sub-cultured in Mueller-Hinton agar (MHA—Biokar Diagnostics, Allone, Beauvais, France). Y. ruckeri ATCC 29473 and L. anguillarum ATCC 1924 were kept in Nutrient Agar (Condalab, Madrid, Spain) and T. maritimum ATCC 43397 was kept in TMM agar (Condalab, Madrid, Spain), and were sub-cultured in the respective culture media before each assay. For S. pyogenes ATCC 19615, CAMHB was supplemented with 3.75% lysed horse blood (LBH—Oxoid, Basingstoke, England), whereas for C. jejuni it was supplemented with 2.5% LHB. Colony-forming unit counts of the inoculum were conducted to determine the initial inoculum size (which should be approximately 5×10^5 CFU/mL). Sterility and growth controls were included in each assay. The 96-well U-shaped untreated polystyrene microtiter plates were incubated for 20 h at 37 degrees C. (42 degrees C. for C. jejuni, in a microaerophilic atmosphere) and the minimal inhibitory concentration (MIC) was determined as the lowest concentration of compound that prevented visible growth. The minimal bactericidal concentration (MBC) was determined by spreading 100 μL of the content of the wells with no visible growth on MH plates. The MBC was determined as the lowest concentration of compound that killed 99.9% of the initial inoculum after overnight incubation at 37 degrees C. Two independent assays were performed for reference and MDR strains.
(§3) An initial screening of the antibacterial activity of the compounds was performed by the Kirby-Bauer disk diffusion method, as recommended by the Clinical and Laboratory Standards Institute (CLSI). Briefly, sterile 6 mm blank paper disks (Oxoid, Basingstoke, England) impregnated with 15 μg of each compound were placed on inoculated MH agar plates. A blank disk with dimethylsulfoxide (DMSO) was used as a negative control. MH inoculated plates were incubated for 18-20 h at 37 degrees C. At the end of incubation, the inhibition halos where measured. The MIC was used to determine the antibacterial activity of each compound, in accordance with the recommendations of the CLSI. Two-fold serial dilutions of the compounds were prepared in Mueller-Hinton Broth 2 (MHB2—Sigma-Aldrich, St. Louis, MO, USA) within the concentration range of 0.062-64 μg/mL. CTX ranging between 0.031-16 μg/mL was used as a control. Sterility and growth controls were included in each assay. Purity checks and colony counts of the inoculum suspensions were also performed in order to ensure that the final inoculum density closely approximates the intended number (5×10^5 CFU/mL). The MIC was determined as the lowest concentration of compound that inhibited growth of the bacteria. The MBC was assessed by spreading 10 μL of culture collected from wells showing no visible growth on MH agar plates. […]

E. coli SA/2 (ESBL) = experiment: Antibacterial MIC/MBC (broth microdilution); type: cell-based, Escherichia coli; conditions: E. coli SA/2 (ESBL)
Description: as §1, §2, §3

P. aeruginosa 33b (PDR) = experiment: Antibacterial MIC/MBC (broth microdilution); type: cell-based, Pseudomonas aeruginosa; conditions: P. aeruginosa 33b (PDR)
Description: as §1, §2, §3

[2] = tested on: Acinetobacter baumannii ATCC 19606; experiment: Antibacterial MIC/MBC (broth microdilution); type: cell-based; conditions: Acinetobacter baumannii ATCC 19606
Description: as §1, §2, §3

[3] = tested on: Campylobacter jejuni ATCC 33560; experiment: Antibacterial MIC/MBC (broth microdilution); type: cell-based; conditions: Campylobacter jejuni ATCC 33560
Description: as §1, §2, §3

[4] = tested on: Escherichia coli ATCC 25922; experiment: Antibacterial MIC/MBC (broth microdilution); type: cell-based; conditions: Escherichia coli ATCC 25922
Description: as §1, §2, §3

[5] = tested on: Klebsiella pneumoniae ATCC 13883; experiment: Antibacterial MIC/MBC (broth microdilution); type: cell-based; conditions: Klebsiella pneumoniae ATCC 13883
Description: as §1, §2, §3

[6] = tested on: Listonella anguilarum ATCC 1924; experiment: Antibacterial MIC/MBC (broth microdilution); type: cell-based; conditions: Listonella anguilarum ATCC 1924
Description: as §1, §2, §3

[7] = tested on: Pseudomonas aeruginosa ATCC 27853; experiment: Antibacterial MIC/MBC (broth microdilution); type: cell-based; conditions: Pseudomonas aeruginosa ATCC 27853
Description: as §1, §2, §3

[8] = tested on: Salmonella enterica serovar Typhimurium CECT 443; experiment: Antibacterial MIC/MBC (broth microdilution); type: cell-based
Description: as §1, §2, §3

[9] = tested on: Staphylococcus aureus ATCC 29213; experiment: Antibacterial MIC/MBC (broth microdilution); type: cell-based
Description: as §1, §2, §3

[10] = tested on: Yersinia ruckeri ATCC 29473; experiment: Antibacterial MIC/MBC (broth microdilution); type: cell-based
Description: as §1, §2, §3

C. jejuni 4432 = experiment: Antibacterial MIC/MBC (broth microdilution); type: cell-based, Campylobacter jejuni
Description: as §1, §2, §3

C. jejuni 4433 = experiment: Antibacterial MIC/MBC (broth microdilution); type: cell-based, Campylobacter jejuni
Description: as §1, §2, §3

C. jejuni 4448 = experiment: Antibacterial MIC/MBC (broth microdilution); type: cell-based, Campylobacter jejuni
Description: as §1, §2, §3

C. jejuni P5/4 = experiment: Antibacterial MIC/MBC (broth microdilution); type: cell-based, Campylobacter jejuni
Description: as §1, §2, §3

[11] = tested on: Tenacibaculum maritimum ATCC 43397; experiment: Antibacterial disk diffusion; type: cell-based; conditions: Tenacibaculum maritimum ATCC 43397, footnote *
Description: as §1, §2, §3

S. aureus 66/1 (MRSA) = experiment: Antibacterial MIC/MBC (broth microdilution); type: cell-based, Staphylococcus aureus
Description: as §1, §2, §3

E. faecalis B3/101 (VRE) = experiment: Antibacterial MIC/MBC (broth microdilution); type: cell-based, Enterococcus faecalis; conditions: E. faecalis B3/101 (VRE)
Description: as §1, §2, §3

[12] = tested on: Enterococcuss faecalis ATCC 29212; experiment: Antibacterial MIC/MBC (broth microdilution); type: cell-based, Enterococcus faecalis; conditions: Enterococcuss faecalis ATCC 29212
Description: as §1, §2, §3

[13] = tested on: Streptococcuss pyogenes ATCC 19615; experiment: Antibacterial MIC/MBC (broth microdilution); type: cell-based, Streptococcus pyogenes; conditions: Streptococcuss pyogenes ATCC 19615
Description: as §1, §2, §3

E. coli ATCC 25922 [14] = experiment: Membrane integrity, propidium iodide influx assay (SYTO 9/PI); type: cell-based, Escherichia coli; conditions: 4 μg/mL; 0, 1, 18 h
Method: The influx of PI in E. coli ATCC 25922 treated with 2×MIC, MIC, and ½×MIC of compound 1 was evaluated using a commercial kit that includes fluorescent nucleic acid stains SYTO® 9 and PI. SYTO® 9 can enter cells with intact or damaged membranes, generally labeling both, whereas PI only penetrates cells with severe membrane lesions, causing a reduction in SYTO® 9 fluorescence when both dyes are present.
In these assays, COL and AMP were used as controls. COL is a polycationic antimicrobial peptide with a complex mode of action, that ultimately solubilizes the bacterial cell membrane. AMP is an aminopenicillin that inhibits cell wall synthesis by inhibiting penicillin-binding proteins. E. coli ATCC 25922 cells were treated with compound 1 and, at several time-points (0, 1, and 18 h), samples were taken, and SYTO® 9/PI ratio was determined ([FIG. 4]). The entrance of PI is reflected in a reduction of this ratio.
Briefly, E. coli ATCC 25922 colonies from overnight cultures in MHA were suspended in CAMHB to prepare an inoculum with a final concentration of approximately 5×10^5 CFU/mL. The tubes were incubated overnight at 36° C. in a water bath with shaking. Following this, the cell suspensions were centrifuged at 3500 rpm for 15 min, the supernatant was removed, the cells were carefully resuspended in fresh CAMHB and the suspension was adjusted to 0.5 McFarland. An aliquot of this suspension was then added to each tube of CAMHB alone (control) or CAMHB plus an appropriate amount of test compound. […] The tubes were incubated at 36 degrees C. in a water bath with shaking and, at pre-established time points (0, 1, and 18 h), […] aliquots were retrieved for further analysis. After the exposure time, cells were washed two times, resuspended in 0.85% NaCl, and 100 μL of each cell suspension was distributed in the wells of a microtiter plate, in triplicate. 100 μL of a mixture of 30 μM PI and 5 μM SYTO® 9 prepared in ultrapure water were added to each well, and the plates were incubated at room temperature, in the dark, for 15 min. The fluorescence intensity of the stained bacterial suspensions was determined using a microplate reader (Synergy HT, BioTek Instruments, Winooski, VT, USA) by two consecutive measurements with excitation wavelength 485 nm and emission wavelength 528 nm (SYTO® 9) or 590 nm (PI). Data were analyzed by subtracting background fluorescence from each sample, dividing the fluorescence intensity of SYTO® 9 by fluorescence intensity of PI, and the results are presented as a percentage of control. Three independent assays were performed in triplicate for each experimental condition.

E. coli ATCC 25922 [15] = experiment: Enzymatic/metabolic activity, MTT assay; type: cell-based, Escherichia coli; conditions: 4 μg/mL; 0, 1, 18 h
Method: To determine whether compound 1 could also affect enzymatic activity, 2-(4,5-dimethyl-2-thiazolyl)-3,5-diphenyl-2H-tetrazolium bromide (MTT) assay was performed. This assay can also be used as an indirect measure of cellular viability, as tetrazolium salts are reduced to purple formazan by metabolically active cells. E. coli ATCC 25922 cells were treated with compound 1 and COL and AMP were used as controls, as described above. Measurements were made at 0, 1, and 18 h.
Enzymatic activity was evaluated by the MTT assay, as previously described, with some modifications. Cell suspensions of E. coli ATCC 25922 were prepared as described above, as well as test conditions and controls. At each time point (0, 1, and 18 h), 500 μL aliquots were collected, centrifuged at 3500 rpm for 10 min, the supernatant was removed, and 300 μL of MTT solution (0.5 mg/mL in CAMHB, at 36 degrees C.) (Thiazolyl Blue Tetrazolium Bromide, Alfa Aesar, Ward Hill, MA, USA) were added. After a 30 min incubation at 36° C., the insoluble formazan product resulting from the conversion of MTT by metabolically active cells was solubilized with 300 μL of DMSO. 100 μL of each sample were transferred in duplicate to the wells of a microtiter plate and the extent of the reduction of MTT to formazan was quantified by measuring the absorbance at 570 nm (Thermo Scientific Multiskan® EX, Thermo Fisher Scientific, Waltham, MA, USA). Three independent assays were performed in duplicate, and results are expressed as a percentage of untreated control.

C[C@H](CCC(=O)NCCc1nc2ccccc2[nH]1)[C@H]1CC[C@H]2[C@@H]3CC[C@@H]4C[C@H](O)CC[C@]4(C)[C@H]3C[C@H](O)[C@]12C [Compound 7, (R)—N-(2-(1H-benzo[d]imidazol-2-yl)ethyl)-4-((3R,5R,8R,9S,10S,12S,13R,14S,17R)-3,12-dihydroxy-10,13-dimethylhexadecahydro-1H-cyclopenta[a]phenanthren-17-yl) pentanamide]
MBC [1]: >64 µg/mL
MIC [1]: >64 µg/mL
MBC (E. coli SA/2 (ESBL)): >64 µg/mL
MIC (E. coli SA/2 (ESBL)): >64 µg/mL
MBC (P. aeruginosa 33b (PDR)): >64 µg/mL
MIC (P. aeruginosa 33b (PDR)): >64 µg/mL
MBC [2]: >64 µg/mL
MIC [2]: >64 µg/mL
MBC [3]: >64 µg/mL
MIC [3]: >64 µg/mL
MBC [4]: >64 µg/mL
MIC [4]: >64 µg/mL
MBC [5]: >64 µg/mL
MIC [5]: >64 µg/mL
MBC [6]: >64 µg/mL
MIC [6]: >64 µg/mL
MBC [7]: >64 µg/mL
MIC [7]: >64 µg/mL
MBC [8]: >64 µg/mL
MIC [8]: >64 µg/mL
MBC [9]: >64 µg/mL
MIC [9]: 8 µg/mL (≈ 14.9 µM)
MBC [10]: >64 µg/mL
MIC [10]: >64 µg/mL
MBC (C. jejuni 4432): >64 µg/mL
MIC (C. jejuni 4432): >64 µg/mL
MBC (C. jejuni 4433): >64 µg/mL
MIC (C. jejuni 4433): >64 µg/mL
MBC (C. jejuni 4448): >64 µg/mL
MIC (C. jejuni 4448): >64 µg/mL
MBC (C. jejuni P5/4): >64 µg/mL
MIC (C. jejuni P5/4): >64 µg/mL
Inhibition zone diameter (disk diffusion) [11]: 9 mm
MBC (S. aureus 66/1 (MRSA)): >64 µg/mL
MIC (S. aureus 66/1 (MRSA)): 16 µg/mL (≈ 29.9 µM)
MBC (E. faecalis B3/101 (VRE)): >64 µg/mL
MIC (E. faecalis B3/101 (VRE)): >64 µg/mL
MBC [12]: >64 µg/mL
MIC [12]: >64 µg/mL
MBC [13]: >64 µg/mL
MIC [13]: >64 µg/mL

CC1(C)S[C@@H]2[C@H](NC(=O)[C@H](N)c3ccccc3)C(=O)N2[C@H]1C(=O)O [AMP]
MIC [4]: 4 µg/mL (≈ 11.4 µM)
reduction in SYTO 9/PI ratio vs untreated control (E. coli ATCC 25922 [14]): not
metabolic activity (MTT) vs untreated control (E. coli ATCC 25922 [15]): did not affect the metabolic activity
